In the supplement of paper PMC13380429:

Legend:
Conditions in all cases: 72 h
Vero E6 [1] = experiment: cell viability relative to DMSO; higher = less toxic
Calu-3 [2] = experiment: as above
Caco-2 [3] = experiment: as above
HepG2 [4] = experiment: as above
U2OS [5] = experiment: as above
Vero E6 [6] = experiment: drug sensitivity score (DSS) for viability; higher = more toxic; extreme values may be limits of the assay
Calu-3 [7] = experiment: as above
Caco-2 [8] = experiment: as above
HepG2 [9] = experiment: as above
U2OS [10] = experiment: as above
Vero E6 [11] = experiment: relative viability EC50 (midpoint between 100% and the lowest measured viability); higher = less toxic
Calu-3 [12] = experiment: as above
Caco-2 [13] = experiment: as above
HepG2 [14] = experiment: as above
U2OS [15] = experiment: as above

Row | Structure (SMILES) | cell viability (Vero E6 [1]; 1 nM) [%] | cell viability (Vero E6 [1]; 10 nM) [%] | cell viability (Vero E6 [1]; 100 nM) [%] | cell viability (Vero E6 [1]; 1000 nM) [%] | cell viability (Vero E6 [1]; 10000 nM) [%] | cell viability (Calu-3 [2]; 1 nM) [%] | cell viability (Calu-3 [2]; 10 nM) [%] | cell viability (Calu-3 [2]; 100 nM) [%] | cell viability (Calu-3 [2]; 1000 nM) [%] | cell viability (Calu-3 [2]; 10000 nM) [%] | cell viability (Caco-2 [3]; 1 nM) [%] | cell viability (Caco-2 [3]; 10 nM) [%] | cell viability (Caco-2 [3]; 100 nM) [%] | cell viability (Caco-2 [3]; 1000 nM) [%] | cell viability (Caco-2 [3]; 10000 nM) [%] | cell viability (HepG2 [4]; 1 nM) [%] | cell viability (HepG2 [4]; 10 nM) [%] | cell viability (HepG2 [4]; 100 nM) [%] | cell viability (HepG2 [4]; 1000 nM) [%] | cell viability (HepG2 [4]; 10000 nM) [%] | cell viability (U2OS [5]; 1 nM) [%] | cell viability (U2OS [5]; 10 nM) [%] | cell viability (U2OS [5]; 100 nM) [%] | cell viability (U2OS [5]; 1000 nM) [%] | cell viability (U2OS [5]; 10000 nM) [%] | drug sensitivity score (Vero E6 [6]) | drug sensitivity score (Calu-3 [7]) | drug sensitivity score (Caco-2 [8]) | drug sensitivity score (HepG2 [9]) | drug sensitivity score (U2OS [10]) | relative viability EC50 (Vero E6 [11]) [µM] | relative viability EC50 (Calu-3 [12]) [µM] | relative viability EC50 (Caco-2 [13]) [µM] | relative viability EC50 (HepG2 [14]) [µM] | relative viability EC50 (U2OS [15]) [µM]
1 | CC(SC(=O)c1cccs1)C(=O)NCC(=O)O (stereo not given) [stepronin] | 109 | 91.9 | 108 | 101 | 98.8 | 91.9 | 106 | 97.6 | 110 | 97.5 | 112 | 84.4 | 96.1 | 103 | 103 | 106 | 102 | 105 | 88.6 | 97 | 96.6 | 104 | 93.5 | 99 | 97.1 | 0 | 0 | 0 | 0.3 | 0 | > 10 | > 10 | > 10 | > 10 | > 10
2 | CN(C)CCn1cc(S(=O)(=O)c2cccc(F)c2)c2cccnc21 | 98.6 | 102 | 101 | 105 | 97.7 | 116 | 94.7 | 90.4 | 97.5 | 95.3 | 98.2 | 102 | 106 | 98.8 | 103 | 106 | 110 | 91.8 | 103 | 97.5 | 103 | 98.3 | 99.9 | 98.2 | 103 | 0 | 0 | 0 | 0 | 0 | > 10 | > 10 | > 10 | > 10 | > 10
3 | CCc1cn([C@H]2C[C@H](O)[C@@H](CO)O2)c(=O)[nH]c1=O [edoxudine] | 102 | 101 | 98 | 96 | 92.4 | 102 | 95.6 | 101 | 97 | 99.1 | 89.6 | 93.6 | 99.9 | 88.2 | 99.5 | 93.8 | 88.3 | 98.6 | 87.4 | 85.8 | 102 | 101 | 98.8 | 98.8 | 95.3 | 0 | 0 | 0 | 0 | 0 | > 10 | > 10 | > 10 | > 10 | > 10
4 | COc1ccc(CCNCc2ccc(OCc3ccc(Cl)nc3)c(OC)c2)cc1OC [SBE-13] | 107 | 104 | 101 | 98.5 | 97.3 | 108 | 97.8 | 93.3 | 99.1 | 93.8 | 90.3 | 94.3 | 92.1 | 98.2 | 95.3 | 107 | 105 | 102 | 96.1 | 94 | 98 | 103 | 102 | 98.8 | 95.2 | 0 | 0 | 0 | 0 | 0 | > 10 | > 10 | > 10 | > 10 | > 10
5 | CNC(=O)[C@@H](c1ccccc1)N1CCc2cc(OC)c(OC)cc2[C@@H]1CCc1ccc(C(F)(F)F)cc1 [almorexant] | 97.4 | 93 | 95.4 | 92.3 | 109 | 94.3 | 91.6 | 94.4 | 95.9 | 98.4 | 92.1 | 99.3 | 96.1 | 108 | 76 | 102 | 103 | 99.5 | 94.2 | 94.1 | 94.7 | 104 | 91.2 | 99.4 | 92.6 | 0 | 0 | 0.6 | 0 | 0 | > 10 | > 10 | > 10 | > 10 | > 10
6 | COc1cc(OC)cc(C(=O)NNC(=O)Nc2cccc3ccccc23)c1 [TC-O-9311] | 102 | 102 | 94.9 | 94.1 | 96 | 84.2 | 92.1 | 93.6 | 97.8 | 107 | 96.3 | 112 | 101 | 102 | 88 | 100 | 101 | 92.3 | 90.9 | 98.7 | 99 | 100 | 98.3 | 101 | 98.4 | 0 | 0 | 0 | 0 | 0 | > 10 | > 10 | > 10 | > 10 | > 10
7 | CCC(=O)OCC(=O)[C@@]1(OC(=O)CC)[C@H](C)C[C@H]2[C@H]3[C@H]([C@@H](O)C[C@@]21C)[C@@]1(C)C=CC(=O)C=C1C[C@H]3Cl [alclometasone-dipropionate] | 108 | 101 | 104 | 98 | 106 | 96 | 88.1 | 90.2 | 95.6 | 97.6 | 97.3 | 101 | 99.7 | 94.7 | 96.8 | 103 | 101 | 112 | 90.4 | 91.1 | 97.2 | 97 | 91.7 | 96.6 | 90.8 | 0 | 0 | 0 | 0 | 0 | > 10 | > 10 | > 10 | > 10 | > 10
8 | COCCOc1ccc2c(c1)ncn2-c1ccc2cccc(N3CCC(N)CC3)c2n1 | 98.3 | 97.1 | 102 | 94.9 | 48.5 | 96 | 92.7 | 103 | 123 | 87.4 | 94.1 | 108 | 98.2 | 104 | 90.4 | 99.3 | 101 | 98.3 | 93.3 | 8.1 | 98.6 | 104 | 95.3 | 95.4 | 45.2 | 3.6 | 0 | 0 | 6.1 | 3.7 | 2.35 | > 10 | > 10 | 2.57 | 2.47
9 | COc1cc(C[C@@H]2NCCc3cc(O)c(O)cc32)cc(OC)c1OC [trimethoquinol] | 103 | 93.1 | 108 | 93.8 | 96.9 | 91.7 | 88.9 | 101 | 86 | 95.7 | 91.3 | 114 | 118 | 107 | 80.3 | 110 | 99.2 | 112 | 90.6 | 83.5 | 89.5 | 97 | 97.3 | 102 | 107 | 0 | 0 | 0.3 | 1.1 | 0 | > 10 | > 10 | > 10 | > 10 | > 10
10 | C[C@H](CS)C(=O)N1CCC[C@H]1C(=O)O [captopril] | 108 | 100 | 107 | 100 | 96.6 | 103 | 111 | 93.4 | 95.4 | 97.4 | 96.1 | 92.8 | 96.8 | 90.9 | 89.6 | 99.5 | 95.7 | 105 | 95.3 | 108 | 98.6 | 101 | 94.9 | 98 | 97.3 | 0 | 0 | 0 | 0 | 0 | > 10 | > 10 | > 10 | > 10 | > 10
11 | OC[C@H]1O[C@@H](O[C@@H]2[C@H](O)[C@@H](O)[C@H](O[C@H]3[C@H](O)[C@@H](O)C(O)O[C@@H]3CO)O[C@@H]2CO)[C@H](O)[C@@H](O)[C@H]1O (stereo not given in full) [4-galactosyllactose] | 97.3 | 105 | 103 | 101 | 99.2 | 102 | 99.3 | 98.2 | 93.3 | 101 | 118 | 96.6 | 123 | 78.8 | 91.7 | 111 | 113 | 101 | 102 | 98.3 | 103 | 96.4 | 102 | 94.8 | 101 | 0 | 0 | 2.5 | 0 | 0 | > 10 | > 10 | > 10 | > 10 | > 10
12 | FC(F)(F)C(F)(F)C(F)(F)C(F)(F)C(F)(F)C(F)(F)C(F)(F)C(F)(F)Br [perflubron] | 109 | 101 | 102 | 92.4 | 96.7 | 87.9 | 108 | 98.1 | 102 | 93.4 | 97 | 98.9 | 91.8 | 103 | 91.2 | 104 | 102 | 99.9 | 96.4 | 105 | 98.1 | 100 | 94.1 | 104 | 97.1 | 0 | 0 | 0 | 0 | 0 | > 10 | > 10 | > 10 | > 10 | > 10
13 | CCCC[C@H](NC(=O)[C@@H]1[C@@H]2[C@H](CN1C(=O)[C@@H](NC(=O)NC1(CS(=O)(=O)C(C)(C)C)CCCCC1)C(C)(C)C)C2(C)C)C(=O)C(=O)NC1CC1 [narlaprevir] | 98.1 | 100 | 102 | 99.5 | 87.8 | 90.9 | 108 | 92.5 | 94.5 | 107 | 100 | 96.4 | 102 | 93.8 | 95.5 | 102 | 112 | 96.3 | 103 | 94.7 | 104 | 98.8 | 100 | 96.9 | 97.1 | 0.1 | 0 | 0 | 0 | 0 | > 10 | > 10 | > 10 | > 10 | > 10
